# Assay results from paper PMC9182007, “Statistical Methods in the Study of Protein Binding and Its Relationship to Drug Bioavailability in Breast Milk” (Molecules, 2022).
# Like-named read-outs stand apart in the source and are kept apart here.
# Tests used:
# [1] = NP TLC on non-impregnated control plates; type: physicochemical; details: for CNP (Rf, control NP plate): Table S3, non-impregnated NP plate, acetonitrile/acetate buffer pH 7.4/methanol 60:20:20; for CNP (Rf value from the non-impregnated NP plate, control): Table S8, external group
# [2] = HPLC on immobilized artificial membrane column (HPLCIAM); type: physicochemical; details: for log k IAM: Table S5, IAM column, pH 7.4; for k IAM: Table S5, retention factor, IAM column, phosphate buffer pH 7.4/acetonitrile 80:20; for log kIAM / kIAM: Table S9, external group
# [3] = target: human serum albumin (HSA) (Homo sapiens, UniProt P02768); details: pH 7.4
# [4] = RP TLC on non-impregnated control plates; type: physicochemical; details: Table S4, non-impregnated RP plate; acetonitrile/acetate buffer pH 7.4/methanol 60:20:20
# [5] = tested on: plasma protein; details: ref DrugBank [7], cited from earlier work
# [6] = Table S1, plasma protein binding given as fraction
# [7] = Table S6, external group (n = 38), given as fraction
# Sequence of human serum albumin (HSA) (P02768 25-609): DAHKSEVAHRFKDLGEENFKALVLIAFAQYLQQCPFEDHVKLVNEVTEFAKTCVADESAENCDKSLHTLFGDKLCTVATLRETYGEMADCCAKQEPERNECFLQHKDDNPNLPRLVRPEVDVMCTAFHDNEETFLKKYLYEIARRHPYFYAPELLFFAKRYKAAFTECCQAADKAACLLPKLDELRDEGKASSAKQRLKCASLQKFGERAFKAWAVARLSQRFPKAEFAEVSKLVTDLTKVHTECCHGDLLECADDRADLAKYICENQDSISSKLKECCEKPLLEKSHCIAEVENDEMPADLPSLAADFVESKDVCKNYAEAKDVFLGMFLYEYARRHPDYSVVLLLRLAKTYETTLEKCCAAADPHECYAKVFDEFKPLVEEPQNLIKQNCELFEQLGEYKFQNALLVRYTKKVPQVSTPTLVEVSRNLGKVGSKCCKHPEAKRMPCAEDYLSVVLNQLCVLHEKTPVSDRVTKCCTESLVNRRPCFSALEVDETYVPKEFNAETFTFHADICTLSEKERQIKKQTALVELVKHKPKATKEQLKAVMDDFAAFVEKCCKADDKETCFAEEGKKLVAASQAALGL
Compound,"CNP (Rf, control NP plate) [1]",log k IAM [2],k IAM [2],"CRP (Rf, control RP plate) [4]",also measured
O=C(O)COC(=O)Cc1ccccc1Nc1c(Cl)cccc1Cl [aceclofenac],0.89,0.42,2.63,,k HSA [3]: 55.89
CC(=O)CC(c1ccc([N+](=O)[O-])cc1)c1c(O)c2ccccc2oc1=O (stereo not drawn) [acenocumarol],,-0.27,0.53,,
Nc1nc2c(ncn2COCCO)c(=O)[nH]1 [aciclovir],,-1.04,0.09,0.99,"PB [5, 6]: 0.21"
Cc1nnc2n1-c1ccc(Cl)cc1C(c1ccccc1)=NC2 [alprazolam],,0.50,3.14,,"PB [5, 6]: 0.8"
CCCCc1oc2ccccc2c1C(=O)c1cc(I)c(OCCN(CC)CC)c(I)c1 [amiodarone],,,,0.33,
CCOC(=O)C1=C(COCCN)NC(C)=C(C(=O)OC)C1c1ccccc1Cl (stereo not drawn) [amlodipine],,2.00,98.90,0.61,
CC(C)c1c(C(=O)Nc2ccccc2)c(-c2ccccc2)c(-c2ccc(F)cc2)n1CC[C@@H](O)C[C@@H](O)CC(=O)O [atorvastatin],,,,0.80,
Cn1c(=O)c2c(ncn2C)n(C)c1=O [caffeine],0.82,-0.75,0.18,,
C[C@H](CS)C(=O)N1CCC[C@H]1C(=O)O [captopril],0.77,-2.19,0.01,,
CCN(CC)CCCC(C)Nc1ccnc2cc(Cl)ccc12 (stereo not drawn) [chloroquine],,,,,"log kIAM [2]: 0.49; PB [5, 7]: 0.55"
O=C(O)c1cn(C2CC2)c2cc(N3CCNCC3)c(F)cc2c1=O [ciprofloxacin],0.11,,,0.38,
CN(C)CCCC1(c2ccc(F)cc2)OCc2cc(C#N)ccc21 (stereo not drawn) [citalopram],,,,,"kIAM [2]: 3.14; log kIAM [2]: 0.50; PB [5, 7]: 0.80"
CN(C)CCCN1c2ccccc2CCc2ccc(Cl)cc21 [clomipramine],,,,,kIAM [2]: 3.05; log kIAM [2]: 0.48
COc1cc2c(c(OC)c1OC)-c1ccc(OC)c(=O)cc1[C@@H](NC(C)=O)CC2 [colchicine],,,,,"PB [5, 7]: 0.39"
Clc1ccc2c(c1)CCc1cccnc1C2=C1CCNCC1 [desloratidine],,1.70,50.45,,
C[C@H]1O[C@@H](O[C@H]2[C@@H](O)C[C@H](O[C@H]3[C@@H](O)C[C@H](O[C@H]4CC[C@@]5(C)[C@H](CC[C@@H]6[C@@H]5C[C@@H](O)[C@]5(C)[C@@H](C7=CC(=O)OC7)CC[C@]65O)C4)O[C@@H]3C)O[C@@H]2C)C[C@H](O)[C@@H]1O [digoxin],,0.57,3.69,,
COc1cc2nc(N3CCN(C(=O)C4COc5ccccc5O4)CC3)nc(N)c2cc1OC (stereo not drawn) [doxazosin],,-0.66,0.22,0.75,
CN(C)CCC[C@@]1(c2ccc(F)cc2)OCc2cc(C#N)ccc21 [escitalopram],0.42,1.51,32.08,0.55,"PB [5, 6]: 0.56"
CC(C)(C(=O)O)c1ccc(C(O)CCCN2CCC(C(O)(c3ccccc3)c3ccccc3)CC2)cc1 (stereo not drawn) [fexofenadine],0.61,,,0.85,
CNCCC(Oc1ccc(C(F)(F)F)cc1)c1ccccc1 (stereo not drawn) [fluoxetine],0.68,1.82,66.64,0.54,"PB [5, 6]: 0.945"
COCCCC/C(=N\OCCN)c1ccc(C(F)(F)F)cc1 [fluvoxamine],,,,,"CNP (Rf value from the non-impregnated NP plate, control) [1]: 0.34"

Compound,"CNP (Rf, control NP plate) [1]",log k IAM [2],k IAM [2],"CRP (Rf, control RP plate) [4]",also measured
NS(=O)(=O)c1cc2c(cc1Cl)NCNS2(=O)=O [hydrochlorotiazide],,,,,kIAM [2]: 2.01; log kIAM [2]: 0.30
CC(C)Cc1ccc(C(C)C(=O)O)cc1 (stereo not drawn) [ibuprofen],,-0.07,0.86,,
CC(C(=O)O)c1cccc(C(=O)c2ccccc2)c1 (stereo not drawn) [ketoprofen],,-0.71,0.20,,
O=C(O)COCCN1CCN([C@H](c2ccccc2)c2ccc(Cl)cc2)CC1 [levocetrizine],,0.58,3.82,,
C[C@H]1COc2c(N3CCN(C)CC3)c(F)cc3c(=O)c(C(=O)O)cn1c23 [levofloxacin],0.17,-0.04,0.90,0.27,"PB [5, 6]: 0.31"
Cc1cnc(NC(=O)C2=C(O)c3ccccc3S(=O)(=O)N2C)s1 [meloxicam],,-0.31,0.49,,
Nc1cc(N2CCCCC2)nc(N)[n+]1[O-] [minoxidil],,,,,"CNP (Rf value from the non-impregnated NP plate, control) [1]: 0.43; kIAM [2]: 1.96; log kIAM [2]: 0.29; PB [5, 7]: 0.00"
CC(C)(O)c1ccccc1CC[C@@H](SCC1(CC(=O)O)CC1)c1cccc(/C=C/c2ccc3ccc(Cl)cc3n2)c1 [montelukast],0.95,2.00,99.10,0.70,
COc1ccc2cc([C@H](C)C(=O)O)ccc2c1 [naproxen],0.92,,,0.88,
CC1COc2c(N3CCN(C)CC3)c(F)cc3c(=O)c(C(=O)O)cn1c23 (stereo not drawn) [ofloxacin],,,,,"CNP (Rf value from the non-impregnated NP plate, control) [1]: 0.24; kIAM [2]: 3.07; log kIAM [2]: 0.49; PB [5, 7]: 0.32"
O=C1Nc2ccc(Cl)cc2C(c2ccccc2)=NC1O (stereo not drawn) [oxazepam],,0.68,4.78,,
CCN(CC)CC#CCOC(=O)C(O)(c1ccccc1)C1CCCCC1 (stereo not drawn) [oxybutinin],0.68,1.70,49.68,0.29,
CCCNCC(O)COc1ccccc1C(=O)CCc1ccccc1 (stereo not drawn) [propafenone],0.57,,,0.56,
CCCc1cc(=O)[nH]c(=S)[nH]1 [propylthiouracil],,,,,"kIAM [2]: 1.51; log kIAM [2]: 0.18; PB [5, 7]: 0.82"
C=C[C@H]1C[N@@]2CC[C@H]1C[C@H]2[C@H](O)c1ccnc2ccc(OC)cc12 [quinine],,,,,kIAM [2]: 3.06; log kIAM [2]: 0.49
CCC(C)(C)C(=O)O[C@H]1C[C@@H](C)C=C2C=C[C@H](C)[C@H](CC[C@@H]3C[C@@H](O)CC(=O)O3)[C@H]21 [simvastatin],0.19,,,0.66,
CCN1CCCC1CNC(=O)c1cc(S(N)(=O)=O)ccc1OC (stereo not drawn) [sulpiride],0.27,0.22,1.66,0.85,"PB [5, 6]: 0.4"
CN1C(=O)C(O)N=C(c2ccccc2)c2cc(Cl)ccc21 (stereo not drawn) [temazepam],,0.83,6.74,,
COc1cccc(C2(O)CCCCC2CN(C)C)c1 (stereo not drawn) [tramadol],,,,,"PB [5, 7]: 0.20"
CC(=O)CC(c1ccccc1)c1c(O)c2ccccc2oc1=O (stereo not drawn) [warfarin],,,,,kIAM [2]: 2.76; log kIAM [2]: 0.44
gentamycin,,,,,"CNP (Rf value from the non-impregnated NP plate, control) [1]: 0.96; kIAM [2]: 4.25; log kIAM [2]: 0.63"
